{"source": "patent US7887850B2", "about": "“Method for reducing pathogens in the gastrointestinal tract of poultry and other food animals” (Ecolab Inc., priority 2004, dated 2011)", "tested_on": "broilers", "description": "A total of 320 broilers (35 days of age) were randomly allocated to 64 pens (5 birds/pen). […] All solutions were prepared and replaced twice a day, and all birds were given free access to the solutions. Water intake, feed consumption, weight gain, and mortality was monitored during the seven day experimental period."}
{"smiles": "O=C(O)CC(O)(CC(=O)O)C(=O)O", "note": "[citric acid]", "values": [{"measurement": "levels that did not affect live performance", "setting": "broilers, drinking water, seven days, percent by weight", "value": "up to 0.4%"}, {"measurement": "differences in mortality during the experiment", "setting": "chicken (broilers), in vivo", "value": "No significant (P>0.05) differences"}, {"measurement": "response of daily and 7-day water consumption to graded levels in the water", "setting": "in vivo", "value": "Linear and quadratic responses"}]}
